The conditions of this data set: 298 K; 101.33 kPa; Crystal; X-ray diffraction.

Among the data in the NIST ThermoML archive (doi:10.1016/j.jct.2014.03.009) are mass density values, retold here.

Numbers after ± are expanded uncertainties.

On to `O.O.O.O.O=C([O-])[C@H](O)[C@@H](O)[C@H](O)[C@H](O)CO.O=C([O-])[C@H](O)[C@@H](O)[C@H](O)[C@H](O)CO.[Mn+2]` [manganese(II) D-gluconate tetrahydrate], for which the mass density turned out to be 1713 ± 8 kg/m3.

What is called mass density is the mass of a sample divided by its volume.
